Test system: Daudi cells (AID positive)
Test: Compound primary screening: cell death in AID positive Daudi cells (Cell-Titer Glo, Day 7)
Assay type: cell-based
Settings: Homo sapiens, 168 h; Daudi cells, AID positive; cell death on Day 7, Cell-Titer Glo; read-out: Cellular activity in AID + (Daudi)
Method in brief: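 AID-positive Daudi cells were seeded at 1250 cells per well and treated with serially diluted compound delivered from a DMSO/media master plate. Cultures were incubated at 37 °C, and cell death was measured on Day 7 with Cell-Titer Glo luminescence.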

For `CCNS(=O)(=O)c1cc(Nc2ccnc(Cl)n2)ccc1-c1cnc([C@H]2CC[C@H](NC(=O)OC(C)C)CC2)s1` [Compound 155, isopropyl trans-N-[4-[5-[4-[(2-chloropyrimidin-4-yl)amino]-2-(ethylsulfamoyl)phenyl]thiazol-2-yl]cyclohexyl]carbamate], which EC50 is on record?
Its EC50 is 100 to 1000 nM.

`CCNS(=O)(=O)c1cc(Nc2ccnc(=O)[nH]2)ccc1-c1cnc([C@H]2CC[C@H](NC(=O)OC(C)C)CC2)s1` [Compound 156, isopropyl trans-N-[4-[5-[2-(ethylsulfamoyl)-4-[(2-hydroxypyrimidin-4-yl)amino]phenyl]thiazol-2-yl]cyclohexyl]carbamate] was tested. Which EC50 did it give?
The EC50 was 100 to 1000 nM.

For `CCNS(=O)(=O)c1cc(Nc2ccc(CC)nn2)ccc1-c1cnc([C@H]2CC[C@H](NC(=O)OC(C)C)CC2)s1` [Compound 157, isopropyl trans-N-[4-[5-[4-[(6-ethylpyridazin-3-yl)amino]-2-(ethylsulfamoyl)phenyl]thiazol-2-yl]cyclohexyl]carbamate], which EC50 is on record?
The EC50 was under 100 nM.

`CCNS(=O)(=O)c1cc(Nc2cc(CC)cnn2)ccc1-c1cnc([C@H]2CC[C@H](NC(=O)OC(C)C)CC2)s1` [Compound 158, isopropyl trans-N-[4-[5-[4-[(5-ethylpyridazin-3-yl)amino]-2-(ethylsulfamoyl)phenyl]thiazol-2-yl]cyclohexyl]carbamate] was tested. Which EC50 did it give?
Its EC50 is 100 to 1000 nM.

Which EC50 does the source give for `CCNS(=O)(=O)c1cc(Nc2ccc(Cl)nn2)ccc1-c1cnc([C@H]2CC[C@H](NC(=O)OC(C)C)CC2)s1` [Compound 159, isopropyl trans-N-[4-[5-[4-[(6-chloropyridazin-3-yl)amino]-2-(ethylsulfamoyl)phenyl]thiazol-2-yl]cyclohexyl]carbamate] here?
Its EC50 is under 100 nM.

For `CCNS(=O)(=O)c1cc(Nc2ccc(=O)[nH]n2)ccc1-c1cnc([C@H]2CC[C@H](NC(=O)OC(C)C)CC2)s1` [Compound 160, isopropyl trans-N-[4-[5-[2-(ethylsulfamoyl)-4-[(6-oxo-1H-pyridazin-3-yl)amino]phenyl]thiazol-2-yl]cyclohexyl]carbamate], which EC50 is on record?
Its EC50 is 100 to 1000 nM.

With `CCNS(=O)(=O)c1cc(Nc2cc(C)cnn2)ccc1-c1cnc([C@H]2CC[C@H](NC(=O)OC(C)C)CC2)s1` [Compound 161, isopropyl trans-N-[4-[5-[2-(ethylsulfamoyl)-4-[(5-methylpyridazin-3-yl)amino]phenyl]thiazol-2-yl]cyclohexyl]carbamate] as the compound, how does the EC50 read?
Its EC50 is under 100 nM.

For `CCNS(=O)(=O)c1cc(Nc2ccc(C)nn2)ccc1-c1cnc([C@H]2CC[C@H](NC(=O)OC(C)C)CC2)s1` [Compound 162, isopropyl trans-N-[4-[5-[2-(ethylsulfamoyl)-4-[(6-methylpyridazin-3-yl)amino]phenyl]thiazol-2-yl]cyclohexyl]carbamate], which EC50 is on record?
The EC50 was under 100 nM.

With `CCNS(=O)(=O)c1cc(Nc2cnc(C(C)C)cn2)ccc1-c1cnc([C@H]2CC[C@H](NC(=O)OC(C)C)CC2)s1` [Compound 163, isopropyl trans-N-[4-[5-[2-(ethylsulfamoyl)-4-[(5-isopropylpyrazin-2-yl)amino]phenyl]thiazol-2-yl]cyclohexyl]carbamate] as the compound, how does the EC50 read?
Its EC50 is 100 to 1000 nM.

Which EC50 does the source give for `CCNS(=O)(=O)c1cc(Nc2cc(C(C)C)cnn2)ccc1-c1cnc([C@H]2CC[C@H](NC(=O)OC(C)C)CC2)s1` [Compound 164, isopropyl trans-N-[4-[5-[2-(ethylsulfamoyl)-4-[(5-isopropylpyridazin-3-yl)amino]phenyl]thiazol-2-yl]cyclohexyl]carbamate] here?
The EC50 was 100 to 1000 nM.

`CCNS(=O)(=O)c1cc(NC2(C)COC2)ccc1-c1cnc([C@H]2CC[C@H](NC(=O)OC)CC2)s1` [Compound 165, methyl trans-N-[4-[5-[2-(ethylsulfamoyl)-4-[(3-methyl-oxetan-3-yl)amino]phenyl]thiazol-2-yl]cyclohexyl]carbamate] was tested. Which EC50 did it give?
Its EC50 is 1000 to 10000 nM.

Which EC50 does the source give for `CCNS(=O)(=O)c1cc(Nc2cn[nH]c2)ccc1-c1cnc([C@H]2CC[C@H](NC(=O)OC)CC2)s1` [Compound 166, methyl trans-N-[4-[5-[2-(ethylsulfamoyl)-4-[(1H-pyrazol-4-yl)amino]phenyl]thiazol-2-yl]cyclohexyl]carbamate] here?
The EC50 was 1000 to 10000 nM.

Which EC50 does the source give for `CCNS(=O)(=O)c1cc(Nc2ccn[nH]2)ccc1-c1cnc([C@H]2CC[C@H](NC(=O)OC)CC2)s1` [Compound 167, methyl trans-N-[4-[5-[2-(ethylsulfamoyl)-4-[(1H-pyrazol-5-yl)amino]phenyl]thiazol-2-yl]cyclohexyl]carbamate] here?
Its EC50 is 100 to 1000 nM.

With `CCNS(=O)(=O)c1cc(Nc2ccnn2C(C)C)ccc1-c1cnc([C@H]2CC[C@H](NC(=O)OC(C)(C)C)CC2)s1` [Compound 170, tert-butyl trans-N-[4-[5-[2-(ethylsulfamoyl)-4-[(2-isopropylpyrazol-3-yl)amino]phenyl]thiazol-2-yl]cyclohexyl]carbamate] as the compound, how does the EC50 read?
The EC50 was 100 to 1000 nM.

Which EC50 does the source give for `CCNS(=O)(=O)c1cc(Nc2cc(C(C)C)ncn2)ccc1-c1cnc([C@H]2CC[C@H](NC(=O)OC(C)C)CC2)s1` [Compound 171, isopropyl trans-N-[4-[5-[2-(ethylsulfamoyl)-4-[(6-isopropylpyrimidin-4-yl)amino]phenyl]thiazol-2-yl]cyclohexyl]carbamate] here?
The EC50 was 100 to 1000 nM.

Which EC50 does the source give for `CCNS(=O)(=O)c1cc(Nc2ccc(=O)n(C)n2)ccc1-c1cnc([C@H]2CC[C@H](NC(=O)OC(C)C)CC2)s1` [Compound 172, isopropyl trans-N-[4-[5-[2-(ethylsulfamoyl)-4-[(1-methyl-6-oxo-pyridazin-3-yl)amino]phenyl]thiazol-2-yl]cyclohexyl]carbamate] here?
The EC50 was 100 to 1000 nM.

Which EC50 does the source give for `CC(C)OC(=O)N[C@H]1CC[C@H](c2ncc(-c3ccc(Nc4ccc(Cl)nn4)cc3S(=O)(=O)NC(C)(C)C)s2)CC1` [Compound 173, isopropyl trans-N-[4-[5-[2-(tert-butylsulfamoyl)-4-[(6-chloropyridazin-3-yl)amino]phenyl]thiazol-2-yl]cyclohexyl]carbamate] here?
Its EC50 is 100 to 1000 nM.

`CC(C)OC(=O)N[C@H]1CC[C@H](c2ncc(-c3ccc(Nc4cccnn4)cc3S(=O)(=O)NC(C)(C)C)s2)CC1` [Compound 174, isopropyl trans-N-[4-[5-[2-(tert-butylsulfamoyl)-4-(pyridazin-3-ylamino)phenyl]thiazol-2-yl]cyclohexyl]carbamate] was tested. Which EC50 did it give?
The EC50 was 100 to 1000 nM.
